Laboratory results published in patent US20260263576A1, “DNA VACCINE TARGETING OVEREXPRESSED ANTIGENS IN COLORECTAL CANCER” (UNIVERSITY OF WASHINGTON, priority 2023, published 2026).

Legend:
[1] = system: tumor infiltrating lymphocytes; assay: Immunophenotyping of tumor infiltrating lymphocytes, ApcMin/+ mice; assay type: in vivo; conditions: APC^Min/+
Experimental: (§1) Immunophenotyping. After removing up to 10 polyps in ApcMin/+, and 1-2 polyps in AOM treated mice, remaining tumors were removed from the intestinal tissue with forceps and applied to a 70 μm filter, washed through with flow cytometry buffer (PBS/1% FBS/2 mM EDTA) and red cells lysed. […] Prior to surface staining, cells were stained with Fixable viability dye 450 (eBiosciences; 1:1000) in PBS and then washed in flow cytometry buffer. Intracellular staining was performed using the FOXP3 buffer set (Thermo Fisher Scientific). Antibodies were obtained from BD Bioscience, Biolegend or Thermo Fisher Scientific. […] Analysis was performed on FACS Canto RUO and data analyzed using FlowJo software (BD Biosciences). […] Results are reported as a percentage of total cell number or a percentage of a specific cell population.

Granzyme B = Granzyme B ELISA of ELISPOT supernatant, ApcMin/+ mice; assay type: in vivo
From the text: (§2) Analysis of peptide-specific T-cell responses. […] Data are reported as pg/ml.

[2] = system: tumor infiltrating lymphocytes; assay: Immunophenotyping of tumor infiltrating lymphocytes, AOM-treated mice; assay type: in vivo
Experimental: as §1

[3] = system: tumors from Apc^Min/+ mice; assay: Immunohistochemistry of tumors (CD8, PD-L1), ApcMin/+ mice; assay type: in vivo; conditions: naproxen intermittently or continuously, p<0.001
Experimental: Immunohistochemistry. Tumors removed from the intestine were covered with Tissue-Tek O.C.T Compound in a cryomold and stored at −80° C. Frozen blocks were sectioned and fixed with 75% acetone/25% methanol for 5 minutes. The slides were washed thrice with PBS and 10% goat serum was added for 1 hour at room temperature followed by an anti-mouse PD-L1 (abcam; clone: MIH6; 1/100 dilution) or anti-mouse CD8 (AbD Serotec; clone KT15; 1/200 dilution) overnight at 4° C. After washing, the slides were incubated with AlexaFluor 488 anti-rat IgG (abcam; 1:1000 dilution) for 1 hour at room temperature. Positive cells were counted in three 20× microscopic fields and expressed as the mean percent of total cells.

[4] = system: splenocytes stimulated with the vaccine peptide pool; assay: Antigen-specific IFN-γ ELISPOT of splenocytes, ApcMin/+ mice; assay type: in vivo; conditions: any regimen of naproxen, adjuvant only
From the text: as §2

human PBMC = assay: Th ratio from IFN-γ and IL-10 ELISPOT, human PBMC screening; assay type: cell-based
Experimental: Vaccine. The vaccine consisted of the Th1-selective epitopes CDC25B-p132-156, COX2-p76-93, COX2-p276-295, EGFR-p880-895, and p962-976. The Th selective epitopes were determined in human PBMC screening by calculating the ratio of the product of the mean magnitude and percent incidence of response for IFN-γ and IL-10 ELISPOT assays (IFN-γ incidence X magnitude/IL-10 incidence X magnitude). Ratios greater than 7 defined Th1-selective epitopes (See Table 4).

## COc1ccc2cc([C@H](C)C(=O)O)ccc2c1 [naproxen]
[1]; CON naproxen
  % CD4 of CD3+: 30%
  % CD8 of CD3+: 35%
  % CM of CD4+: 14%
  % CM of CD8+: 4%
  % EM of CD4+: 60%
  % EM of CD8+: 48%
  % Foxp3 of CD4: 4%
  % GATA3 of CD4+: 5%
  % MDSC: 1%
  % PD1 of CD4+: 3%
  % PD1 of CD8+: 7%
  % Tbet of CD3: 9%
[1]; INT naproxen
  % CD4 of CD3+: 14%
  % CD8 of CD3+: 15%
  % CM of CD4+: 18%
  % CM of CD8+: 2%
  % EM of CD4+: 41%
  % EM of CD8+: 44%
  % Foxp3 of CD4: 2%
  % GATA3 of CD4+: 4%
  % MDSC: 4%
  % PD1 of CD4+: 5%
  % PD1 of CD8+: 7%
  % Tbet of CD3: 11%
Granzyme B
  Granzyme B levels, in words: did not result in increased
[2]; CON naproxen
  % CD4 of CD3+: 61%
  % CD8 of CD3+: 12%
  % CM of CD4+: 6%
  % CM of CD8+: 8%
  % EM of CD4+: 43%
  % EM of CD8+: 52%
  % Foxp3 of CD4: 5%
  % GATA3 of CD4+: 2%
  % MDSC: 6%
  % PD1 of CD4+: 3%
  % PD1 of CD8+: 4%
  % Tbet of CD3: 10%
[2]; INT naproxen
  % CD4 of CD3+: 66%
  % CD8 of CD3+: 11%
  % CM of CD4+: 6%
  % CM of CD8+: 6%
  % EM of CD4+: 48%
  % EM of CD8+: 53%
  % Foxp3 of CD4: 5%
  % GATA3 of CD4+: 3%
  % MDSC: 6%
  % PD1 of CD4+: 4%
  % PD1 of CD8+: 4%
  % Tbet of CD3: 9%
[3]
  tumor cell expression of PD-L1: reduced
  tumor infiltrating CD8+ T-cells: increased
[4]
  antigen-specific IFN-γ: did not result in increased

## CDC25b-p132-156: peptide IQAASRIIRNEQFAIRRFQSMPVRL (SEQ ID NO: 1)
Human PBMC
  Th ratio (IFN-γ incidence X magnitude/IL-10 incidence X magnitude): 186

## COX2-p276-295: peptide EVFGLVPGLMMYATIWLREH (SEQ ID NO: 3)
Human PBMC
  Th ratio (IFN-γ incidence X magnitude/IL-10 incidence X magnitude): 17

## COX-2-p76-93: peptide YILTHFKGFWNVVNNIPF (SEQ ID NO: 2)
Human PBMC
  Th ratio (IFN-γ incidence X magnitude/IL-10 incidence X magnitude): 7
